Measured values: patent publication US20200368315A1, “ANTIMICROBIAL PEPTIDES AND ADMIXTURES THEREOF SHOWING ANTIMICROBIAL ACTIVITY AGAINST GRAM-NEGATIVE PATHOGENS” (priority 2017, published 2020)
≈ marks a conversion by molar mass, not a printed value. Where two headings read alike, the source gives them in different places.

Key:
HEK293 cells = test: Cell viability (ATP levels, CellTiter-Glo); settings: HEK293 cells
Protocol: ATP levels were measured by adding 50 μL of CellTiter-Glo reagent to each well and after 5 minutes of incubation luminescence was measured with SpectraMax i3.
96-well plates were seeded with HEK293 cells at concentration of 30,000 cells per well in 100 μL of DMEM growth media supplemented with 1% NEAA and 10% FBS. Border wells were filled with 100 μL of sterile PBS. The next day compounds were added to cells. Compounds were first 2× diluted in 96-well V-bottom plate in PBS. After that compounds were mixed with media in 96-deep-well plate for final concentrations. Growth media from 3 plates was aspirated and replaced with 100 μL of prepared compounds. Compounds were tested in duplicate. ATP levels were measured by adding 50 μL of CellTiter-Glo reagent to each well and after 5 minutes of incubation luminescence was measured with SpectraMax i3. […] The potential effects were then calculated and presented as IC50 values (μg/mL).

A. baumannii LMG01041 [1] = assay type: cell-based, Acinetobacter baumannii; settings: nisin + GNP
Outline: (§1)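 Chequerboard broth microdilution in MHB: nisin two-fold serially diluted along one axis and GNPs along the other, each starting at its own MIC. Fresh bacterial suspension added; FIC index calculated as MICac/MICa + MICbc/MICb, with FICI ≤0.5 read as synergy.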

P. aeruginosa LMG 6395 [2] = test: microbe, parasite or virus in culture; assay type: cell-based, Pseudomonas aeruginosa; settings: for MIC: Pseudomonas aeruginosa
Outline: (§2)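 Duplicate two-fold dilution series in MHB; inoculum 5*10^5 CFU/mL final, verified by colony count on agar. MIC read as lowest concentration blocking visible growth.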

K. pneumoniae LMG20218 = test: microbe, parasite or virus in culture; assay type: cell-based, Klebsiella pneumoniae; settings: for MIC: Klebsiella pneumoniae
Outline: as §2

A. baumannii LMG01041 [3] = test: microbe, parasite or virus in culture; assay type: cell-based, Acinetobacter baumannii; settings: for MIC: Acinetobacter baumannii
Outline: as §2

L. lactis MG1363 = settings: L. lactis MG1363
E. coli LMG15862 = test: microbe, parasite or virus in culture; assay type: cell-based, Escherichia coli; settings: for MIC: Escherichia coli
Outline: as §2

P. aeruginosa LMG 6395 [4] = assay type: cell-based, Pseudomonas aeruginosa; settings: nisin + GNP
Outline: as §1

[5] = system: Klebsiella pneumoniae ATCC 700603; test: microbe, parasite or virus in culture; assay type: cell-based; settings: Klebsiella pneumoniae, ATCC700603
Protocol: (§3) Testing was performed according to CLSI (Clinical Laboratory Standards Institute) guidelines. Read out of the study was determination of MIC—minimal inhibitory concentration expressed in μg/mL.
(§4) Out of these PBS solutions, 76.8 μL was transferred to 1423.2 μL of MH media in deep well for testing compound alone. […] Out of these working solutions 100 μL were transferred to wells in the third column of 96-well assay plates. Assay plates were previously filled with 50 μL of MH media in all wells except for the wells in the third column.
(§5) Microorganisms used were all revived from skim milk storage at −70° C. by plating them on MH agar plates. The following day a single colony of each microorganism was again streaked on fresh agar plates. The next day, using direct colony suspension method, broth solutions that achieve turbidity equivalent to 0.5 McFarland standard for each microorganism were prepared. […] Out of these suspensions, actual inoculums were prepared by diluting them 100× with MH media giving final microorganism count of 2-8×10^5 CFU/mL. For each strain of microorganisms, 20 mL of these inoculum solutions were prepared. From the second to the twelfth column of 96-well plates, 50 μL of these solutions were transferred per well. To the first column, 50 μL per well of pure growth media was added. In this manner the first column was used as sterility control of media used, the second column was used as control of microorganism's growth and the rest of the plate was used for MIC determination. All plates were incubated for 16-24 h at 37° C.
(§6) MIC value was determined by visual inspection of bacterial growth within 96-well plates. The first column in which there was no visible growth of bacteria was determined as MIC value for peptide or combination tested in that particular row.

[6] = system: Pseudomonas aeruginosa ATCC 27853; test: microbe, parasite or virus in culture; assay type: cell-based; settings: Pseudomonas aeruginosa, ATCC27853
Protocol: as §3, §4, §5, §6

[7] = system: Acinetobacter baumannii ATCC 17978; test: microbe, parasite or virus in culture; assay type: cell-based; settings: Acinetobacter baumannii, ATCC17978
Protocol: as §3, §4, §5, §6

[8] = system: Escherichia coli ATCC 25922; test: microbe, parasite or virus in culture; assay type: cell-based; settings: Escherichia coli, ATCC25922
Protocol: as §3, §4, §5, §6

`CC[C@@H](C)[C@@H](NC(=O)[C@@H](CCCNC(=N)N)NC(=O)[C@@H](CCCNC(=N)N)NC(=O)[C@@H](Cc1ccccc1)NC(=O)[C@@H](CC(C)C)NC(=O)[C@@H](CCCNC(=N)N)NC(=O)[C@H](N)CCCNC(=N)N)C(=O)N[C@H](CC(C)C)C(=O)N[C@H](CCCNC(=N)N)C(=O)N[C@H](Cc1c[nH]c2ccccc12)C(=O)N[C@H](CC(C)C)C(N)=O` [GNP-D6] showed an IC50 (HEK293 cells; read-out: IC50 (cell viability, ATP levels)) of 32.9 µM, an FICI (A. baumannii LMG01041 [1]) of 0.313 and an MIC value (P. aeruginosa LMG 6395 [2]; alone, P. aeruginosa LMG 6395) of 2 µM (≈ 3.17 µg/mL). The MIC value (K. pneumoniae LMG20218; alone, K. pneumoniae LMG20218) was 2 µM (≈ 3.17 µg/mL), the MIC value (A. baumannii LMG01041 [3]; alone, A. baumannii LMG01041) was 2 µM (≈ 3.17 µg/mL) and the “MIC value of antimicrobial compounds alone” value (L. lactis MG1363) was 2 µM. For the same compound, the MIC value (E. coli LMG15862; alone, E. coli LMG15862) was 2 µM (≈ 3.17 µg/mL) and the FICI (P. aeruginosa LMG 6395 [4]) was 0.25.

With `CN[C@H](CC(C)C)C(=O)N[C@H]1C(=O)N[C@@H](CC(N)=O)C(=O)N[C@H]2C(=O)N[C@H]3C(=O)N[C@H](C(=O)N[C@H](C(=O)O)c4cc(O)cc(O)c4-c4cc3ccc4O)[C@H](O)c3ccc(c(Cl)c3)Oc3cc2cc(c3O[C@@H]2O[C@H](CO)[C@@H](O)[C@H](O)[C@H]2O[C@H]2C[C@](C)(N)[C@H](O)[C@H](C)O2)Oc2ccc(cc2Cl)[C@H]1O` [Vancomycin, reference compound] the “Effect on ATP levels” value (HEK293 cells; at concentrations tested) was “do not affect the ATP levels”, the MIC (P. aeruginosa LMG 6395 [2]; LMG6395, read-out: MIC value) was 128 µM (≈ 186 µg/mL) and the MIC (P. aeruginosa LMG 6395 [2]; LMG6395, read-out: MIC value of antimicrobial compounds alone) was 128 µM (≈ 186 µg/mL). For the same compound, the MIC (K. pneumoniae LMG20218; LMG20218, read-out: MIC value) was 128 µM (≈ 186 µg/mL), the MIC (K. pneumoniae LMG20218; LMG20218, read-out: MIC value of antimicrobial compounds alone) was 128 µM (≈ 186 µg/mL) and the MIC (A. baumannii LMG01041 [3]; LMG01041, read-out: MIC value) was 32 µM (≈ 46.4 µg/mL). The MIC (A. baumannii LMG01041 [3]; LMG01041, read-out: MIC value of antimicrobial compounds alone) was 32 µM (≈ 46.4 µg/mL), the MIC (E. coli LMG15862; LMG15862, read-out: MIC value) was 64 µM (≈ 92.8 µg/mL) and the MIC (E. coli LMG15862; LMG15862, read-out: MIC value of antimicrobial compounds alone) was 64 µM (≈ 92.8 µg/mL). The MIC [5] was greater than 128 µg/mL, the MIC [6] was greater than 128 µg/mL and the MIC [7] was 128 µg/mL. For the same compound, the MIC [8] was greater than 128 µg/mL.
